The source of these data is ChEMBL document CHEMBL2074344, “Active efflux of the 5-HT(1A) receptor agonist flesinoxan via P-glycoprotein at the blood-brain barrier” (Eur J Pharm Sci, 2001).

The target of data set [1] is ATP-dependent translocase ABCB1 (Homo sapiens, UniProt P08183). Put plainly: TP_TRANSPORTER: transepithelial transport (basal to apical) in MDR1-expressing LLC-PK1 cells. The data set is classed as functional, cell-based. As to conditions: pig.
The target of data set [2] is ATP-dependent translocase ABCB1 (Mus musculus, UniProt P21447). Kind of data set: TP_TRANSPORTER: increase in brain concentration in mdr1a(-/-) mouse. The data set is classed as functional, organism-based. As to conditions: in vivo.
Chain of ATP-dependent translocase ABCB1 (Mus musculus, UniProt P21447) (P21447 whole entry): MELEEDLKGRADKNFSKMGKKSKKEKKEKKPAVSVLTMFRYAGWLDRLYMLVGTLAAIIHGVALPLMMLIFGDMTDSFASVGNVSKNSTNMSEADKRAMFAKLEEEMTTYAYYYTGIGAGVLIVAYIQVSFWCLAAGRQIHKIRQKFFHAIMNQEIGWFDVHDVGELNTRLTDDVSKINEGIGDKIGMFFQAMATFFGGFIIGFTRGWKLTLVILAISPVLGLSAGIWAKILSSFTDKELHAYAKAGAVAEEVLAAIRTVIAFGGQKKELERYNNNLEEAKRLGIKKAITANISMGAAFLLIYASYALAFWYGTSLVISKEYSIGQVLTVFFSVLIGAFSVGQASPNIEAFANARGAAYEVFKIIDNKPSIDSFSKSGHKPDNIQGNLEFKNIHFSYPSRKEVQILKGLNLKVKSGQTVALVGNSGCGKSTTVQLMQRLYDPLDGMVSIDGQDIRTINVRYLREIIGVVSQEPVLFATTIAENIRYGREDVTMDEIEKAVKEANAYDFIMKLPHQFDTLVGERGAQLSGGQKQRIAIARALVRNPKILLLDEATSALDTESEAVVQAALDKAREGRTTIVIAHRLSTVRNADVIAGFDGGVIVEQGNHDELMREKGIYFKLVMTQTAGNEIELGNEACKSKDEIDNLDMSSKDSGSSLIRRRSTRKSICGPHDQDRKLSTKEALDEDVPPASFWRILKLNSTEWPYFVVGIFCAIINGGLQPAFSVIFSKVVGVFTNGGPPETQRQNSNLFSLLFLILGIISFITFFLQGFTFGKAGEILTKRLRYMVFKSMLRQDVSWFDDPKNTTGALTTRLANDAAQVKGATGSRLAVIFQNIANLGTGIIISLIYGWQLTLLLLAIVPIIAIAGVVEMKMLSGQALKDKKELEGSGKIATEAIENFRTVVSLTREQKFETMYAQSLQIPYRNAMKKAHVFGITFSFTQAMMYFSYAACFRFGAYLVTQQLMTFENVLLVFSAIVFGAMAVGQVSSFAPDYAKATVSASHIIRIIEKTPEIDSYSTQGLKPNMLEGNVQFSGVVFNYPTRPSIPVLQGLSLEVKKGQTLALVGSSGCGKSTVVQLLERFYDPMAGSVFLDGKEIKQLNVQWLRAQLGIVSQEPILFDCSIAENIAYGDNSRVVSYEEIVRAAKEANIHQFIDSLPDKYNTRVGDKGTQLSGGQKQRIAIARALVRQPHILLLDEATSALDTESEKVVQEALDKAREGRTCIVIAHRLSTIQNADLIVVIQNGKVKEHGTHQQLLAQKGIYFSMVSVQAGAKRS

Chain of ATP-dependent translocase ABCB1 (Homo sapiens, UniProt P08183) (P08183 whole entry): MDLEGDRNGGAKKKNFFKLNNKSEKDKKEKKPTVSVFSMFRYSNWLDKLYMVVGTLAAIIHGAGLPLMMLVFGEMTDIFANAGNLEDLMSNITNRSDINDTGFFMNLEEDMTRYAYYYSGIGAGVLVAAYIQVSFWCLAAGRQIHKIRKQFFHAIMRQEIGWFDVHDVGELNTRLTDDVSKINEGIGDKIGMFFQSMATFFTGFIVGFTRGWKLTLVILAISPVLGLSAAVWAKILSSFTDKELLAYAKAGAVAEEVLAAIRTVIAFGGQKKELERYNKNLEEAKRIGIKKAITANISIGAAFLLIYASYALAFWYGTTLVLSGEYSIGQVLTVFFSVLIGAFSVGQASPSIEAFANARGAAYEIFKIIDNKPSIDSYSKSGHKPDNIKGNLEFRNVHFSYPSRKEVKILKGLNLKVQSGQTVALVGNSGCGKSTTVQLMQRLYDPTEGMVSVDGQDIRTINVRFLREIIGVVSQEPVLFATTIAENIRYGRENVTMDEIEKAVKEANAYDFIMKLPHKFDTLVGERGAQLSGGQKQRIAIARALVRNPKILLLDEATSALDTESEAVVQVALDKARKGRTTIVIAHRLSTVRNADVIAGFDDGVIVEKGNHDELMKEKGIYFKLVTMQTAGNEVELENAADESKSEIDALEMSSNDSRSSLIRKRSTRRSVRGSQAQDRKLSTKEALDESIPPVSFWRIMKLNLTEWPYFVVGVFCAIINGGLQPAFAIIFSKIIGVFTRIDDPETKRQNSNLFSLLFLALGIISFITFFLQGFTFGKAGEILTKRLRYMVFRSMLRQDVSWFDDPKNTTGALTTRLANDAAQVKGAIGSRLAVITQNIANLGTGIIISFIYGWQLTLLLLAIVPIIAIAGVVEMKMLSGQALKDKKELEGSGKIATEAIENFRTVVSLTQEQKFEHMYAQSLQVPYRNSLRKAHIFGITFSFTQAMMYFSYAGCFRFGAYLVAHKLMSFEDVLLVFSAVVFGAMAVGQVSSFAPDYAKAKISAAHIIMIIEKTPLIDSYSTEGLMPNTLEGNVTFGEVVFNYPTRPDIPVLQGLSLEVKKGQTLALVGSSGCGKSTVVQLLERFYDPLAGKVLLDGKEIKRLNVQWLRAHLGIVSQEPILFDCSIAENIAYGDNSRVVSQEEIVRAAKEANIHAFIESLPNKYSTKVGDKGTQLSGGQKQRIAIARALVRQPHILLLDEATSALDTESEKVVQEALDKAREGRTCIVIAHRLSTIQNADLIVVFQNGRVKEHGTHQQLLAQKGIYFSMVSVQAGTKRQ

As for `O=C(NCCN1CCN(c2cccc3c2OC[C@H](CO)O3)CC1)c1ccc(F)cc1` [FLESINOXAN], the Activity result in data set [1] and in data set [2] was “substrate [+]” throughout.
